Experimental data: ChEMBL document CHEMBL1201862, “PubChem BioAssay data set” (2004)
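Step 1: Grow cells in 96-well plates. Step 2: Expose to compound for 48 hours at 5 concentrations. Step 3: Interpolate endpoints linearly; if unreached, use highest concentration. GI50 = concentration required for 50% inhibition of growth.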 Activity calls are given as the source filed them. No stated cut-off is given here; in the data, active = GI50 up to about 1.1 µM and inactive = higher. Where a SMILES comes first, the peptide text is derived from it. [ ]: non-standard residue; d: D form. The star is where a group is joined. Octanoyl = CCCCCCCC(=O)*; Aib = CC(C)(N)C(=O)O; tBu = CC(C)(C)*

Experiments:
Assay in all cases: NCI-60 cell line screen, 48 h
SNB-75 = tested on: SNB-75
SK-MEL-2 = tested on: SK-MEL-2
786-0 = tested on: 786-0
K562 = tested on: K562
HCC 2998 = tested on: HCC 2998
MDA-MB-231 = tested on: MDA-MB-231
A498 = tested on: A498
OVCAR-4 = tested on: OVCAR-4
MDA-N = tested on: MDA-N
SR = tested on: SR
HL-60 = tested on: HL-60
EKVX = tested on: EKVX
OVCAR-5 = tested on: OVCAR-5
SW-620 = tested on: SW-620
U-251 = tested on: U-251
SK-OV-3 = tested on: SK-OV-3
SF-539 = tested on: SF-539
Malme-3M = tested on: Malme-3M
SF-268 = tested on: SF-268
BT-549 = tested on: BT-549

Row | SMILES | GI50 (SNB-75) | GI50 (SK-MEL-2) | GI50 (786-0) | GI50 (K562) | GI50 (HCC 2998) | GI50 (MDA-MB-231) | GI50 (A498) | GI50 (OVCAR-4) | GI50 (MDA-N) | GI50 (SR) | GI50 (HL-60) | GI50 (EKVX) | GI50 (OVCAR-5) | GI50 (SW-620) | GI50 (U-251) | GI50 (SK-OV-3) | GI50 (SF-539) | GI50 (Malme-3M) | GI50 (SF-268) | GI50 (BT-549)
1 | CCCCC(=O)OC[n+]1ccc2c(C)c3[nH]c4ccccc4c3c(C)c2c1 | 1.28 µM (inactive) | 1.97 µM (inactive) | 0.298 µM (active) | 0.186 µM (active) | 0.433 µM (active) | 0.174 µM (active) | 0.681 µM (active) | 1.01 µM (active) | 0.484 µM (active) | 0.0895 µM (active) | 0.378 µM (active) | 0.497 µM (active) | 0.525 µM (active) | 0.359 µM (active) | 0.574 µM (active) | 0.74 µM (active) | 0.526 µM (active) | 1.46 µM (inactive) | 0.46 µM (active) | 
2 | C=C1C[C@@H](O)[C@@H](Br)C(C)(C)[C@@]12C=CC(O)(CBr)CC2 (stereo partly specified) |  | 86.3 µM (inactive) | > 100 µM (inactive) | 55.8 µM (inactive) |  | 29 µM (inactive) |  | > 100 µM (inactive) | > 100 µM (inactive) | 14.8 µM (inactive) | 35.4 µM (inactive) | 6.98 µM (inactive) | 13.7 µM (inactive) | > 100 µM (inactive) | 63.4 µM (inactive) |  |  | > 100 µM (inactive) | 50 µM (inactive) | 29.9 µM (inactive)
3 | CC(C)n1c(=O)c2nn3c(=O)n(C(C)C)c(=O)c3nn2c1=O |  | > 100 µM (inactive) | > 100 µM (inactive) |  | > 100 µM (inactive) | > 100 µM (inactive) | > 100 µM (inactive) | > 100 µM (inactive) | > 100 µM (inactive) | > 100 µM (inactive) | > 100 µM (inactive) | > 100 µM (inactive) | > 100 µM (inactive) | > 100 µM (inactive) |  | > 100 µM (inactive) | > 100 µM (inactive) | > 100 µM (inactive) | > 100 µM (inactive) | 
4 | O=c1/c(=C/c2ccc(-c3ccc(Cl)cc3Cl)o2)sc2n1[C@@H](c1ccc(Cl)cc1)C=C(c1cc(F)c(Cl)cc1Cl)N=2 | 63.4 µM (inactive) | 40.5 µM (inactive) | 45.3 µM (inactive) | 38.8 µM (inactive) | 12.8 µM (inactive) | 23.6 µM (inactive) | 2.05 µM (inactive) | 41.9 µM (inactive) | 53.8 µM (inactive) |  | < 0.01 µM (active) |  | > 100 µM (inactive) | 33.6 µM (inactive) | 31.5 µM (inactive) | 19.2 µM (inactive) | 34.8 µM (inactive) | > 100 µM (inactive) | 36.1 µM (inactive) | 45.8 µM (inactive)
5 | CC1COC(c2cn[nH]c2C(N)=O)C1O (stereo unspecified) | > 100 µM (inactive) | > 100 µM (inactive) | > 100 µM (inactive) | > 100 µM (inactive) |  | > 100 µM (inactive) | > 100 µM (inactive) | > 100 µM (inactive) | > 100 µM (inactive) | > 100 µM (inactive) | > 100 µM (inactive) | > 100 µM (inactive) | > 100 µM (inactive) | > 100 µM (inactive) | > 100 µM (inactive) | > 100 µM (inactive) | > 100 µM (inactive) |  | > 100 µM (inactive) | > 100 µM (inactive)
6 | CCCCCCCC(=O)NC(C)(C)C(=O)NC(COC(C)(C)C)C(=O)NC(CC(C)C)C(=O)NC(C)(C)C(=O)NC(COC(C)(C)C)C(=O)NC(COC(C)(C)C)C(=O)NC(CC(C)C)C(=O)NC(C)(C)C(=O)NC(COC(C)(C)C)C(=O)NC(C(=O)NC(CC(C)C)C(=O)OC)C(C)CC (stereo unspecified) (Octanoyl-[Aib]S(tBu)L[Aib]S(tBu)S(tBu)L[Aib]S(tBu)IL-OMe; configuration not given here) | 5.24 µM (inactive) | 6.01 µM (inactive) | 7.89 µM (inactive) | 5.52 µM (inactive) |  | 5.86 µM (inactive) | 5.5 µM (inactive) | 8.63 µM (inactive) | 8.65 µM (inactive) | 5.62 µM (inactive) | 6.46 µM (inactive) | 6.22 µM (inactive) | 6.5 µM (inactive) | 8.95 µM (inactive) | 5.24 µM (inactive) | 11.8 µM (inactive) | 8.49 µM (inactive) |  | 9.95 µM (inactive) | 5.38 µM (inactive)
7 | O=C1C=C2CC[C@H]3[C@@H]4CC[C@H](Oc5c6ccccc6nc6ccccc56)[C@H]4CC[C@@H]3[C@H]2CC1 | 28.3 µM (inactive) | 40 µM (inactive) | 91.2 µM (inactive) | 32.7 µM (inactive) |  | 41.3 µM (inactive) |  | 52.7 µM (inactive) | 21.4 µM (inactive) |  | 12.2 µM (inactive) | 4.47 µM (inactive) | > 100 µM (inactive) | 51.8 µM (inactive) | 41.9 µM (inactive) | 60.8 µM (inactive) | 52.2 µM (inactive) |  | 84.9 µM (inactive) | 20.3 µM (inactive)
8 | O=C(COc1ccc(OCC(=O)N2C(=O)CC(=O)N(c3ccccc3)C2=S)cc1)N1C(=O)CC(=O)N(c2ccccc2)C1=S | > 100 µM (inactive) | 43.4 µM (inactive) | 56.1 µM (inactive) | 52.1 µM (inactive) | 97.3 µM (inactive) | 46.8 µM (inactive) | 80.2 µM (inactive) | 44.4 µM (inactive) | 68.7 µM (inactive) |  |  | > 100 µM (inactive) | > 100 µM (inactive) | 72.1 µM (inactive) | 46.1 µM (inactive) | 77.4 µM (inactive) |  | > 100 µM (inactive) | 43.2 µM (inactive) | 78.7 µM (inactive)
9 | CCOC(=O)Nc1nn(C)/c(=N/Cc2ccccc2)s1 | > 100 µM (inactive) | > 100 µM (inactive) | > 100 µM (inactive) | > 100 µM (inactive) |  | > 100 µM (inactive) | > 100 µM (inactive) | > 100 µM (inactive) | > 100 µM (inactive) | > 100 µM (inactive) | > 100 µM (inactive) | > 100 µM (inactive) | > 100 µM (inactive) | > 100 µM (inactive) | > 100 µM (inactive) | > 100 µM (inactive) | > 100 µM (inactive) |  |  | 85.1 µM (inactive)
10 | COC(=O)C(N)CCCC(N)C(=O)NC(C)C(=O)NC(CCC(=O)NCCCNc1ccc([N+](=O)[O-])c2[nH]c3ccccc3c(=O)c12)C(N)=O (stereo unspecified) | 9.89 µM (inactive) | 16.8 µM (inactive) | 4.53 µM (inactive) | 6.67 µM (inactive) | 6.82 µM (inactive) | 10.1 µM (inactive) | 15.1 µM (inactive) | 6.15 µM (inactive) |  |  |  | 7.78 µM (inactive) | 10.4 µM (inactive) | 3.7 µM (inactive) | 4.66 µM (inactive) | 11.4 µM (inactive) |  |  | 3.25 µM (inactive) | 12.7 µM (inactive)
11 | O=C1C(/C=C/c2ccc(Cl)cc2)=NNC2N1N=C1NC(=O)C3(NN12)c1ccccc1-c1ccccc13 (stereo unspecified) | > 100 µM (inactive) | > 100 µM (inactive) | > 100 µM (inactive) | 35.4 µM (inactive) | > 100 µM (inactive) | > 100 µM (inactive) | > 100 µM (inactive) | > 100 µM (inactive) |  | < 0.01 µM (active) | > 100 µM (inactive) | 38.5 µM (inactive) | > 100 µM (inactive) | > 100 µM (inactive) | > 100 µM (inactive) | > 100 µM (inactive) | > 100 µM (inactive) | > 100 µM (inactive) | > 100 µM (inactive) | > 100 µM (inactive)
12 | [N-]=[N+]=Nc1c([N+](=O)[O-])c(=O)n(-c2ccccc2)c2ccccc12 | 20.1 µM (inactive) | 17.9 µM (inactive) | 19.5 µM (inactive) | 22.5 µM (inactive) | 61.5 µM (inactive) | 17.8 µM (inactive) | 73.5 µM (inactive) | 18.3 µM (inactive) | 27.2 µM (inactive) | 25.2 µM (inactive) |  | 16.7 µM (inactive) | > 100 µM (inactive) | 29.2 µM (inactive) | 20.7 µM (inactive) | 57.9 µM (inactive) | 25.5 µM (inactive) | 17 µM (inactive) | 22.5 µM (inactive) | 
13 | C=CCNC(=S)NC=C(C(N)=O)C(N)=O | > 100 µM (inactive) | > 100 µM (inactive) | > 100 µM (inactive) | > 100 µM (inactive) | > 100 µM (inactive) | > 100 µM (inactive) | < 0.01 µM (active) | > 100 µM (inactive) | > 100 µM (inactive) | > 100 µM (inactive) | > 100 µM (inactive) | > 100 µM (inactive) | > 100 µM (inactive) | > 100 µM (inactive) | > 100 µM (inactive) | > 100 µM (inactive) | > 100 µM (inactive) | > 100 µM (inactive) | > 100 µM (inactive) | 
14 | CC(C)CC(NC=O)C(=O)NC(Cc1ccccc1)NC(=O)CNC(=O)C(C)NC(=O)OC(C)(C)C (stereo unspecified) | > 100 µM (inactive) |  | > 100 µM (inactive) | > 100 µM (inactive) |  | > 100 µM (inactive) | 21.9 µM (inactive) | > 100 µM (inactive) | > 100 µM (inactive) | > 100 µM (inactive) | > 100 µM (inactive) | > 100 µM (inactive) | > 100 µM (inactive) | > 100 µM (inactive) | > 100 µM (inactive) | > 100 µM (inactive) | > 100 µM (inactive) | > 100 µM (inactive) | > 100 µM (inactive) | > 100 µM (inactive)
15 | CCN(CC)C(=S)SC [METHYLDIETHYL CARBAMODITHIOATE] | > 100 µM (inactive) | > 100 µM (inactive) | > 100 µM (inactive) | > 100 µM (inactive) | > 100 µM (inactive) | > 100 µM (inactive) | > 100 µM (inactive) |  | > 100 µM (inactive) |  | > 100 µM (inactive) | > 100 µM (inactive) | > 100 µM (inactive) | > 100 µM (inactive) | > 100 µM (inactive) | > 100 µM (inactive) | > 100 µM (inactive) | > 100 µM (inactive) | > 100 µM (inactive) | > 100 µM (inactive)
